This is an account of results in publication PMC10763561, “Red-light modulated ortho-chloro azobenzene photoswitch for peptide stapling via aromatic substitution” (RSC Chemical Biology, 2023).

pKd: −log10 of the molar value. Like-named read-outs stand apart in the source and are kept apart here. Starred links: 1 amine or outer side, 2 acyl side, 3 side chain; linkers in the order of their positions; H or OH if unused. Positions of bridges follow the written chain, without caps; N, C: chain ends. Residues, ends and D or L forms follow the SMILES beside them. X1 = Clc1cc([*:1])cc(Cl)c1N=Nc1c(Cl)cc([*:2])cc1Cl

The target in data set [1] is T1, p53-interacting domain of human MDM2 (MDM2 6-125) (Homo sapiens, UniProt Q00987).
T1 construct: human MDM2 (MDM26–125)
T1 sequence (Q00987 6-125 limits assumed): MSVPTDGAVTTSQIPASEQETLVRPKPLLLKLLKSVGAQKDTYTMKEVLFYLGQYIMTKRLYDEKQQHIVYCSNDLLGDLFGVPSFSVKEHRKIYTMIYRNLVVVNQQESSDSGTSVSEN
Description: MDM2 direct fluorescence polarisation binding assay. Particulars: direct FP, 15 nM tracer, MDM2 titrated from 9.75 uM, 18-point, PBS 0.05% Tween-20 3% DMSO, 1:1 binding model. On the procedure: To assess the binding affinity of the precursor peptide P1 and the photoswitchable stapled peptide SP1 for MDM2, a competitive fluorescence polarisation (FP) assay was carried out using the p53-interacting domain of human MDM2 (MDM26–125). […] The inhibitory constants (Ki) for all peptides were subsequently determined. […] This can be attributed the loss in α-helicity observed for P1, in comparison to that of PMI,[34] measured by CD analysis. To induce in situ isomerisation, SP1 was irradiated with red or purple light in FP buffer prior to commencing the experiment. […] The Ki values for each isomer were determined from their corresponding inflection points in the fitted sigmoidal curve. […]
The half-life of the metastable cis SP1 form in FP assay buffer was determined by analytical HPLC analysis (Figure S3). […]
P1 and SP1 (10 μL, 10 mM stock in DMSO) were incubated with PBS (1x, 500 μL), human serum (50 μL) and caffeine (10 μL of a 11.25 mg/mL solution in MQ water) at 37 °C for 5 days. […] The samples were spun at 13400 g for 10 minutes and the supernatant analysed by HPLC analysis, with a 5-95% B gradient (A: 0.05% (v/v) TFA in H2O, B: 0.05% (v/v) TFA in MeCN) over 18 minutes at 220 nm.
Caffeine was used as an internal standard to enable quantification of degradation over time. […]
7 Fluorescence Polarisation (FP) Assay […]
7.1 MDM2 Fluorescence Polarisation Binding Assay […]
(In general: Fluorescence polarisation rises when a labelled molecule tumbles more slowly, as on binding a larger partner.)

A short description of data set [2]: Serum stability study monitored by HPLC. Type of data set: in vitro ADME, human. The settings on record: 37 °C, HPLC 220 nm. On the procedure: The stability of SP1 in human serum was investigated and compared to the stability of its linear precursor P1 and the parent PMI (Fig. 6). The stability of the peptides at 37 °C in human serum was monitored throughout 5 days by HPLC.
Fig. 6 Stability of the precursor peptide P1, the parent PMI and SP1 in human serum at 37 °C, over 5 days, monitored by HPLC at 220 nm. […]
6.2 Serum Stability Studies
P1 and SP1 (10 μL, 10 mM stock in DMSO) were incubated with PBS (1x, 500 μL), human serum (50 μL) and caffeine (10 μL of a 11.25 mg/mL solution in MQ water) at 37 °C for 5 days. At specific intervals, aliquots (25 μL) of the reaction mixture were taken, flash frozen in liquid nitrogen and stored at -20 °C prior to analysis on the same day. Upon unfreezing, the samples were quenched with 25 μL of 96% ethanol and 25 μL of DMSO. The samples were spun at 13400 g for 10 minutes and the supernatant analysed by HPLC analysis, with a 5-95% B gradient (A: 0.05% (v/v) TFA in H2O, B: 0.05% (v/v) TFA in MeCN) over 18 minutes at 220 nm.
Caffeine was used as an internal standard to enable quantification of degradation over time. The experiment was performed in duplicates (Table S2-4). […]

[3] abbreviates: human, human serum diluted in PBS, replicate 1, human serum 50 uL in PBS 500 uL, caffeine internal standard, read-out: Normalised Linker % (peptide remaining).
The mark [4] stands for this setting: human, human serum diluted in PBS, replicate 2, human serum 50 uL in PBS 500 uL, caffeine internal standard, read-out: Normalised Linker % (peptide remaining).
The mark [5] stands for this setting: human, human serum diluted in PBS, 24 h, replicate 2, human serum 50 uL in PBS 500 uL, caffeine internal standard, read-out: Normalised Linker % (peptide remaining).

As usually defined, the pKd is the negative decadic logarithm of the Kd, by convention in mol/L. A high value points to a small Kd. In general, amount remaining refers to what is left of the initial amount, in per cent.

Turning to `CSCC[C@H](NC(=O)[C@H](Cc1ccccc1)NC(=O)[C@H](CCCNC(=N)N)NC(=O)c1ccc2c(c1)C(=O)OC21c2ccc(N(C)C)cc2Oc2cc(N(C)C)ccc21)C(=O)N[C@@H](CC(=O)O)C(=O)N[C@@H](Cc1ccc(O)cc1)C(=O)N[C@@H](Cc1c[nH]c2ccccc12)C(=O)N[C@@H](CCC(=O)O)C(=O)NCC(=O)N[C@@H](CC(C)C)C(N)=O` [FP tracer peptide, TAMRA-RFMDYWEGL-NH2], in data set [1], the pKd is 8.12.
For `CC(=O)N[C@H](C(=O)N[C@@H](CO)C(=O)N[C@@H](Cc1ccccc1)C(=O)N[C@@H](C)C(=O)N[C@@H](CS)C(=O)N[C@@H](Cc1ccc(O)cc1)C(=O)N[C@@H](Cc1c[nH]c2ccccc12)C(=O)N[C@@H](CC(N)=O)C(=O)NCC(=O)N[C@@H](CC(C)C)C(=O)N[C@@H](CO)C(=O)N[C@@H](CS)C(N)=O)[C@@H](C)O` [Peptide P1] (Ac-TSFACYWNGLSC-NH2), the “Normalised Linker % (peptide remaining)” value in data set [2] (1 h, replicate 2, without the addition of TCEP, human serum 50 uL in PBS 500 uL, caffeine internal standard) amounted to 0.000%. The amount remaining at 0.5 h, 175 µM in data set [2] (human serum diluted in PBS, 0.5 h, replicate 1, without the addition of TCEP, human serum 50 uL in PBS 500 uL, caffeine internal standard, read-out: Normalised Linker % (peptide remaining)) amounted to 12.8%. In addition, the share remaining at 1 h, 175 µM in data set [2] (human serum diluted in PBS, 1 h, replicate 1, without the addition of TCEP, human serum 50 uL in PBS 500 uL, caffeine internal standard, read-out: Normalised Linker % (peptide remaining)) came to 0%.
`CC(=O)N[C@H](C(=O)N[C@@H](CO)C(=O)N[C@@H](Cc1ccccc1)C(=O)N[C@@H](C)C(=O)N[C@H]1CSc2cc(Cl)c(c(Cl)c2)N=Nc2c(Cl)cc(cc2Cl)SC[C@@H](C(N)=O)NC(=O)[C@H](CO)NC(=O)[C@H](CC(C)C)NC(=O)CNC(=O)[C@H](CC(N)=O)NC(=O)[C@H](Cc2c[nH]c3ccccc23)NC(=O)[C@H](Cc2ccc(O)cc2)NC1=O)[C@@H](C)O` [SP1] (Ac-TSFACYWNGLSC-NH2; linker 5-12 via X1): the “stability in human serum compared with P1 and PMI” value in data set [2] (human serum, 5 days) was “markedly improved stability”. For the same compound, in data set [2] (setting [3]), the fraction remaining at 2 h, 175 µM came to 88.6%; the fraction remaining at 72 h, 175 µM was found to be 79.2%; the amount remaining at 120 h, 175 µM was found to be 82.4%. Further, in data set [2] (setting [4]), the fraction remaining at 2 h, 175 µM amounted to 89%; the amount remaining at 72 h, 175 µM stood at 53.6%; the fraction remaining at 120 h, 175 µM turned out to be 48%. The share remaining at 24 h, 175 µM in data set [2] (human, human serum diluted in PBS, 24 h, replicate 1, human serum 50 uL in PBS 500 uL, caffeine internal standard, read-out: Normalised Linker % (peptide remaining)) was found to be 82.9%. The amount remaining at 24 h, 175 µM in data set [2] (setting [5]) was 72.4%.
For the compound “Ac-TSFAEYWNNLSP-NH2 [PMI, reference compound]”, the “Normalised Linker % (peptide remaining)” value in data set [2] (24 h, replicate 1, human serum 50 uL in PBS 500 uL, caffeine internal standard) worked out at 0.000%. For the same compound, the share remaining at 1 h, 175 µM in data set [2] (human, human serum diluted in PBS, 1 h, replicate 1, human serum 50 uL in PBS 500 uL, caffeine internal standard, read-out: Normalised Linker % (peptide remaining)) stood at 87.2%. The amount remaining at 1 h, 175 µM in data set [2] (human, human serum diluted in PBS, 1 h, replicate 2, human serum 50 uL in PBS 500 uL, caffeine internal standard, read-out: Normalised Linker % (peptide remaining)) is 97.2%. In data set [2] (setting [3]), the amount remaining at 3 h, 175 µM came out at 72.8%; the share remaining at 6 h, 175 µM is 47.4%; the share remaining at 9 h, 175 µM stood at 23.2%. In addition, in data set [2] (setting [4]), the fraction remaining at 3 h, 175 µM was 76.2%; the amount remaining at 6 h, 175 µM worked out at 32.7%; the share remaining at 9 h, 175 µM came to 11.3%. For the same compound, the amount remaining at 24 h, 175 µM in data set [2] (setting [5]) was determined as 0%.
